Laboratory results taken from paper PMC5285354, “Cationic Net Charge and Counter Ion Type as Antimicrobial Activity Determinant Factors of Short Lipopeptides” (Frontiers in Microbiology, 2017).
Converted amounts (≈) assume the structure as drawn. Where two headings read alike, the source gives them in different places. Where a SMILES comes first, the peptide text is derived from it. The star is where a group is joined. Octanoyl = CCCCCCCC(=O)*

Key:
Type in all cases: cell-based
[1] = tested on: Pseudomonas aeruginosa (ATCC 9027); conditions: ATCC 9027, TFA salt, triplicate; for MIC Pseudomonas aeruginosa: Mueller-Hinton broth, 10^5 cfu/mL, 18 h 37°C; for MBC Pseudomonas aeruginosa: subculture on Mueller-Hinton II Agar, 24 h 37°C
Description: (§1) The minimum inhibitory concentration (MIC), minimum bactericidal concentration (MBC) and minimum fungicidal concentration (MFC) were determined according to the procedure recommended by the Clinical Laboratory Standards Institute (CLSI). The following reference strains were tested: Gram-negative E. coli (ATCC 25922), K. pneumoniae (ATCC 700603), P. vulgaris (PCM 2668), P. aeruginosa (ATCC 9027), Gram-positive S. aureus (ATCC 25923), S. epidermidis (PCM 2118), B. subtilis (ATCC 6633), E. faecalis (ATCC 29212) and fungi C. albicans (ATCC 10231), C. tropicalis (PCM 2681), and A. brasiliensis (ATCC 16404). All the microorganisms were from the Polish Collection of Microorganisms (Wroclaw, Poland). MIC was determined using a microbroth dilution method with Mueller-Hinton (MH) broth for bacteria and Sabouraud Dextrose broth for fungi (Becton Dickinson, Le Pont de Claix, France). An initial inoculum of 10^5 cfu/mL was used for bacteria and 10^3 cfu/mL for fungi. Polypropylene 96-well plates (Kartell, Noviglio, Italy) were incubated for 18 h at 37°C for bacteria and for 48 h at 25°C for the tested fungi. MIC (μg/mL) was taken as the lowest concentration of the lipopeptide, at which the observable growth was inhibited. […] The experiments were performed in triplicate on three different days.

[2] = tested on: Klebsiella pneumoniae (ATCC 700603); conditions: ATCC 700603, TFA salt, triplicate; for MIC Klebsiella pneumoniae: Mueller-Hinton broth, 10^5 cfu/mL, 18 h 37°C; for MBC Klebsiella pneumoniae: subculture on Mueller-Hinton II Agar, 24 h 37°C
Description: as §1

[3] = tested on: Staphylococcus aureus (ATCC 25923); conditions: ATCC 25923, TFA salt; for MBC Staphylococcus aureus: MIC wells subcultured on Mueller-Hinton II Agar, 24 h 37°C, triplicate; for MIC Staphylococcus aureus: Mueller-Hinton broth, 10^5 cfu/mL, 18 h 37°C, triplicate on three days
Description: as §1

[4] = tested on: Bacillus subtilis (ATCC 6633)
Description: as §1

[5] = tested on: Proteus vulgaris (PCM 2668); conditions: PCM 2668, TFA salt, triplicate; for MIC Proteus vulgaris: Mueller-Hinton broth, 10^5 cfu/mL, 18 h 37°C; for MBC Proteus vulgaris: subculture on Mueller-Hinton II Agar, 24 h 37°C
Description: as §1

[6] = tested on: Enterococcus faecalis (ATCC 29212); conditions: for MBC Enterococcus fecalis: subculture on Mueller-Hinton II Agar, 24 h 37°C
Description: as §1

[7] = tested on: Staphylococcus epidermidis (PCM 2118)
Description: as §1

[8] = tested on: Aspergillus brasiliensis (ATCC 16404); conditions: ATCC 16404, 48 h
Description: as §1

[9] = tested on: Escherichia coli (ATCC 25922); conditions: ATCC 25922, TFA salt, triplicate; for MIC Escherichia coli: Mueller-Hinton broth, 10^5 cfu/mL, 18 h 37°C; for MBC Escherichia coli: subculture on Mueller-Hinton II Agar, 24 h 37°C
Description: as §1

[10] = tested on: Candida albicans (ATCC 10231); conditions: ATCC 10231, 48 h
Description: as §1

[11] = tested on: Candida tropicalis (PCM 2681); conditions: PCM 2681, 48 h
Description: as §1

[12] = ATCC 6633, TFA salt, Mueller-Hinton broth, 10^5 cfu/mL, 18 h 37°C, triplicate
[13] = ATCC 6633, TFA salt, subculture on Mueller-Hinton II Agar, 24 h 37°C, triplicate
[14] = ATCC 29212, TFA salt, Mueller-Hinton broth, 10^5 cfu/mL, 18 h 37°C, triplicate
[15] = ATCC 29212, TFA salt, triplicate
[16] = PCM 2118, TFA salt, Mueller-Hinton broth, 10^5 cfu/mL, 18 h 37°C, triplicate
[17] = PCM 2118, TFA salt, subculture on Mueller-Hinton II Agar, 24 h 37°C, triplicate

| SMILES | MIC Pseudomonas aeruginosa [1] | MBC Pseudomonas aeruginosa [1] | MIC Klebsiella pneumoniae [2] | MBC Klebsiella pneumoniae [2] | MBC Staphylococcus aureus [3] | MIC Staphylococcus aureus [3] | MIC Bacillus subtillis [4, 12] | MBC Bacillus subtillis [4, 13] | MIC Proteus vulgaris [5] | MBC Proteus vulgaris [5] | MIC Enterococcus fecalis [6, 14] | MBC Enterococcus fecalis [6, 15] | MFC Aspergillus brasiliensis [8] | MIC Aspergillus brasiliensis [8] | MIC Escherichia coli [9] | MBC Escherichia coli [9] | MFC Candida albicans [10] | MIC Candida albicans [10] | MFC Candida tropicalis [11] | MIC Candida tropicalis [11] | also measured |
| --- | --- | --- | --- | --- | --- | --- | --- | --- | --- | --- | --- | --- | --- | --- | --- | --- | --- | --- | --- | --- | --- |
| CCCCCCCC(=O)N[C@@H](CCCCN)C(=O)NCC(N)=O [C8-KG-NH2] (Octanoyl-Lys-Gly-NH2) | >2000 µg/mL | >2000 µg/mL | >2000 µg/mL | >2000 µg/mL | >2000 µg/mL | >2000 µg/mL | >2000 µg/mL | >2000 µg/mL | >2000 µg/mL | >2000 µg/mL | >2000 µg/mL | >2000 µg/mL | 2000 µg/mL (≈ 6.09 mM) | 2000 µg/mL (≈ 6.09 mM) | >2000 µg/mL | >2000 µg/mL | 2000 µg/mL (≈ 6.09 mM) | 2000 µg/mL (≈ 6.09 mM) | 2000 µg/mL (≈ 6.09 mM) | 2000 µg/mL (≈ 6.09 mM) | MIC Staphylococcus epidermidis [7, 16]: >2000 µg/mL; MBC Staphylococcus epidermidis [7, 17]: >2000 µg/mL |
| CCCCCCCCCC(=O)N[C@@H](CCCCN)C(=O)N[C@@H](CCCCN)C(=O)N[C@@H](CCCCN)C(N)=O [C10-KKK-NH2] | >2000 µg/mL | >2000 µg/mL | >2000 µg/mL | >2000 µg/mL | >2000 µg/mL | >2000 µg/mL | – | – | >2000 µg/mL | >2000 µg/mL | >2000 µg/mL | >2000 µg/mL | 2000 µg/mL (≈ 3.6 mM) | 1000 µg/mL (≈ 1.8 mM) | >2000 µg/mL | >2000 µg/mL | 2000 µg/mL (≈ 3.6 mM) | 2000 µg/mL (≈ 3.6 mM) | 2000 µg/mL (≈ 3.6 mM) | 2000 µg/mL (≈ 3.6 mM) | MIC Bacillus subtillis ([4]; ATCC 6633, 18 h): 128 µg/mL (≈ 0.23 mM); MBC Bacillus subtillis ([4]; ATCC 6633, 24 h): 256 µg/mL (≈ 0.461 mM); MIC Staphylococcus epidermidis ([7]; PCM 2118, 18 h): 128 µg/mL (≈ 0.23 mM); MBC Staphylococcus epidermidis ([7]; PCM 2118, 24 h): 256 µg/mL (≈ 0.461 mM) |
| CCCCCCCC(=O)N[C@@H](CCCCN)C(=O)N[C@@H](CCCCN)C(=O)N[C@@H](CCCCN)C(=O)N[C@@H](CCCCN)C(N)=O [C8-KKKK-NH2] (Octanoyl-KKKK-NH2) | >2000 µg/mL | >2000 µg/mL | >2000 µg/mL | >2000 µg/mL | >2000 µg/mL | >2000 µg/mL | >2000 µg/mL | >2000 µg/mL | >2000 µg/mL | >2000 µg/mL | – | >2000 µg/mL | 2000 µg/mL (≈ 3.05 mM) | 2000 µg/mL (≈ 3.05 mM) | >1000 µg/mL | >1000 µg/mL | 2000 µg/mL (≈ 3.05 mM) | 2000 µg/mL (≈ 3.05 mM) | 2000 µg/mL (≈ 3.05 mM) | 2000 µg/mL (≈ 3.05 mM) | MIC Enterococcus fecalis ([6]; ATCC 29212, 18 h): 2000 µg/mL (≈ 3.05 mM); MIC Staphylococcus epidermidis [7, 16]: >2000 µg/mL; MBC Staphylococcus epidermidis [7, 17]: >2000 µg/mL |
| CCCCCCCC(=O)N[C@@H](CCCCN)C(=O)NCC(=O)N[C@@H](CCCCN)C(N)=O [C8-KGK-NH2] (Octanoyl-Lys-Gly-Lys-NH2) | >2000 µg/mL | >2000 µg/mL | >2000 µg/mL | >2000 µg/mL | >2000 µg/mL | >2000 µg/mL | – | – | >2000 µg/mL | >2000 µg/mL | >2000 µg/mL | >2000 µg/mL | 2000 µg/mL (≈ 4.38 mM) | 2000 µg/mL (≈ 4.38 mM) | >2000 µg/mL | >2000 µg/mL | 2000 µg/mL (≈ 4.38 mM) | 2000 µg/mL (≈ 4.38 mM) | 2000 µg/mL (≈ 4.38 mM) | 2000 µg/mL (≈ 4.38 mM) | MIC Bacillus subtillis ([4]; ATCC 6633, 18 h): 512 µg/mL (≈ 1.12 mM); MBC Bacillus subtillis ([4]; ATCC 6633, 24 h): 1000 µg/mL (≈ 2.19 mM); MIC Staphylococcus epidermidis ([7]; PCM 2118, 18 h): 256 µg/mL (≈ 0.561 mM); MBC Staphylococcus epidermidis ([7]; PCM 2118, 24 h): 1000 µg/mL (≈ 2.19 mM) |
| CCCCCCCC(=O)N[C@@H](CCCCN)C(=O)NCC(=O)N[C@@H](CCCCN)C(=O)NCC(N)=O [C8-KGKG-NH2] (Octanoyl-KGKG-NH2) | >2000 µg/mL | >2000 µg/mL | >2000 µg/mL | >2000 µg/mL | >2000 µg/mL | >2000 µg/mL | >2000 µg/mL | >2000 µg/mL | >2000 µg/mL | >2000 µg/mL | >2000 µg/mL | >2000 µg/mL | 2000 µg/mL (≈ 3.89 mM) | 2000 µg/mL (≈ 3.89 mM) | >2000 µg/mL | >2000 µg/mL | 2000 µg/mL (≈ 3.89 mM) | 2000 µg/mL (≈ 3.89 mM) | 2000 µg/mL (≈ 3.89 mM) | 2000 µg/mL (≈ 3.89 mM) | MIC Staphylococcus epidermidis [7, 16]: >2000 µg/mL; MBC Staphylococcus epidermidis [7, 17]: >2000 µg/mL |
